Measured values taken from PubChem BioAssay AID1963849 (Molecular Pharmacology Branch, DTP, NCI, 2024).

Tested on: 299254-011-R-J1-PDC complex spheroid viability
Test: Anticancer human tumor 299254-011-R-J1-PDC patient-derived melanoma cell line growth inhibition [POLQ]
Details: for IC50: curve of first compound; for viability, T/C: stronger effect = lower value
Method in brief: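 PDC + HUVEC + MSC complex spheroids; POLQ inhibitors ± partner drugs; top conc. at/near clinical Cmax, else 10 microM (SN-38 1 microM), half-log dilutions; 37 degrees C, 5% CO2.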

[1] = second compound 0.0316 µM, first compound 0.0316 µM
[2] = second compound 0.0316 µM, first compound 0.1 µM
[3] = second compound 0.0316 µM, first compound 0.316 µM
[4] = second compound 0.0316 µM, first compound 1 µM
[5] = second compound 0.0316 µM, first compound 3.16 µM
[6] = second compound 0.0316 µM, first compound 10 µM
[7] = second compound 0.1 µM, first compound 0.0316 µM
[8] = second compound 0.1 µM, first compound 0.1 µM
[9] = second compound 0.1 µM, first compound 0.316 µM
[10] = second compound 0.1 µM, first compound 1 µM
[11] = second compound 0.1 µM, first compound 3.16 µM
[12] = second compound 0.1 µM, first compound 10 µM
[13] = second compound 0.316 µM, first compound 0.0316 µM
[14] = second compound 0.316 µM, first compound 0.1 µM
[15] = second compound 0.316 µM, first compound 0.316 µM
[16] = second compound 0.316 µM, first compound 1 µM
[17] = second compound 0.316 µM, first compound 3.16 µM
[18] = second compound 0.316 µM, first compound 10 µM
[19] = second compound 1 µM, first compound 0.0316 µM
[20] = second compound 1 µM, first compound 0.1 µM
[21] = second compound 1 µM, first compound 0.316 µM
[22] = second compound 1 µM, first compound 1 µM
[23] = second compound 1 µM, first compound 3.16 µM
[24] = second compound 1 µM, first compound 10 µM
[25] = second compound 3.16 µM, first compound 0.0316 µM
[26] = second compound 3.16 µM, first compound 0.1 µM
[27] = second compound 3.16 µM, first compound 0.316 µM
[28] = second compound 3.16 µM, first compound 1 µM
[29] = second compound 3.16 µM, first compound 3.16 µM
[30] = second compound 3.16 µM, first compound 10 µM
[31] = second compound 10 µM, first compound 0.0316 µM
[32] = second compound 10 µM, first compound 0.1 µM
[33] = second compound 10 µM, first compound 0.316 µM
[34] = second compound 10 µM, first compound 1 µM
[35] = second compound 10 µM, first compound 3.16 µM
[36] = second compound 10 µM, first compound 10 µM
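Also: spheroids exposed to drugs for one week before measurement.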
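For viability, T/C in this document: percent viability relative to DMSO vehicle control taken as 100%.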

SMILES: CC1COCCN1c1cc(C2(S(C)(=N)=O)CC2)nc(-c2ccnc3[nH]ccc23)n1 (stereo not drawn) + Cc1cccc(N(C)C(=O)C2C(O)CCN2c2nc(C)cc(C(F)(F)F)c2C#N)c1
- IC50 (second compound 0.0316 µM): 6.32 µM
- IC50 (second compound 0.1 µM): 5.32 µM
- IC50 (second compound 0.316 µM): 7 µM
- IC50 (second compound 1 µM): 6.25 µM
- IC50 (second compound 3.16 µM): 4.22 µM
- IC50 (second compound 10 µM): 2.67 µM
- viability, T/C [1]: 105%
- viability, T/C [2]: 99%
- viability, T/C [3]: 87.2%
- viability, T/C [4]: 79.6%
- viability, T/C [5]: 66.4%
- viability, T/C [6]: 39.4%
- viability, T/C [7]: 108%
- viability, T/C [8]: 103%
- viability, T/C [9]: 91.1%
- viability, T/C [10]: 80.1%
- viability, T/C [11]: 61%
- viability, T/C [12]: 36.7%
- viability, T/C [13]: 99.1%
- viability, T/C [14]: 97.4%
- viability, T/C [15]: 91.6%
- viability, T/C [16]: 96.6%
- viability, T/C [17]: 66%
- viability, T/C [18]: 42.8%
- viability, T/C [19]: 93%
- viability, T/C [20]: 92.5%
- viability, T/C [21]: 104%
- viability, T/C [22]: 94.3%
- viability, T/C [23]: 70.9%
- viability, T/C [24]: 35.6%
- viability, T/C [25]: 90.4%
- viability, T/C [26]: 92.7%
- viability, T/C [27]: 100%
- viability, T/C [28]: 92.3%
- viability, T/C [29]: 54.4%
- viability, T/C [30]: 36.8%
- viability, T/C [31]: 93%
- viability, T/C [32]: 92.7%
- viability, T/C [33]: 93.8%
- viability, T/C [34]: 63.7%
- viability, T/C [35]: 52.7%
- viability, T/C [36]: 37.9%

SMILES: COc1cccc2c1C(=O)c1c(O)c3c(c(O)c1C2=O)CC(O)(C(=O)CO)CC3OC1CC(N)C(O)C(C)O1 (stereo not drawn) + Cc1cccc(N(C)C(=O)C2C(O)CCN2c2nc(C)cc(C(F)(F)F)c2C#N)c1
- IC50 (second compound 0.0316 µM): 0.565 µM
- IC50 (second compound 0.1 µM): 0.803 µM
- IC50 (second compound 0.316 µM): 0.763 µM
- IC50 (second compound 1 µM): 0.67 µM
- IC50 (second compound 3.16 µM): 0.567 µM
- IC50 (second compound 10 µM): 0.352 µM
- viability, T/C [1]: 111%
- viability, T/C [2]: 77.3%
- viability, T/C [3]: 64.9%
- viability, T/C [4]: 44.1%
- viability, T/C [5]: 12.2%
- viability, T/C [6]: 0.75%
- viability, T/C [7]: 83.7%
- viability, T/C [8]: 75.8%
- viability, T/C [9]: 77.4%
- viability, T/C [10]: 42.9%
- viability, T/C [11]: 11.7%
- viability, T/C [12]: 0.68%
- viability, T/C [13]: 97.7%
- viability, T/C [14]: 83.2%
- viability, T/C [15]: 75.2%
- viability, T/C [16]: 43.8%
- viability, T/C [17]: 11.4%
- viability, T/C [18]: 1.03%
- viability, T/C [19]: 105%
- viability, T/C [20]: 89.8%
- viability, T/C [21]: 61.7%
- viability, T/C [22]: 48.6%
- viability, T/C [23]: 12%
- viability, T/C [24]: 0.75%
- viability, T/C [25]: 100%
- viability, T/C [26]: 74.8%
- viability, T/C [27]: 68.8%
- viability, T/C [28]: 38.9%
- viability, T/C [29]: 8.88%
- viability, T/C [30]: 0.51%
- viability, T/C [31]: 102%
- viability, T/C [32]: 74.6%
- viability, T/C [33]: 59.9%
- viability, T/C [34]: 19.8%
- viability, T/C [35]: 0.75%
- viability, T/C [36]: 0.31%

SMILES: C=CC(=O)N1CCN(c2nc(=O)n(-c3c(C)ccnc3C(C)C)c3nc(-c4c(O)cccc4F)c(F)cc23)C(C)C1 (stereo not drawn) + Cc1cccc(N(C)C(=O)C2C(O)CCN2c2nc(C)cc(C(F)(F)F)c2C#N)c1
- IC50 (second compound 0.0316 µM): > 10 µM
- IC50 (second compound 0.1 µM): > 10 µM
- IC50 (second compound 0.316 µM): > 10 µM
- IC50 (second compound 1 µM): > 10 µM
- IC50 (second compound 3.16 µM): > 10 µM
- IC50 (second compound 10 µM): > 10 µM
- viability, T/C [1]: 88.6%
- viability, T/C [2]: 75.1%
- viability, T/C [3]: 72.8%
- viability, T/C [4]: 67.8%
- viability, T/C [5]: 63.4%
- viability, T/C [6]: 68.9%
- viability, T/C [7]: 85.2%
- viability, T/C [8]: 78.1%
- viability, T/C [9]: 64%
- viability, T/C [10]: 79.3%
- viability, T/C [11]: 69.3%
- viability, T/C [12]: 58.7%
- viability, T/C [13]: 99.5%
- viability, T/C [14]: 81.8%
- viability, T/C [15]: 88.3%
- viability, T/C [16]: 77.2%
- viability, T/C [17]: 74.3%
- viability, T/C [18]: 64.4%
- viability, T/C [19]: 88.4%
- viability, T/C [20]: 73.8%
- viability, T/C [21]: 63.5%
- viability, T/C [22]: 64.5%
- viability, T/C [23]: 82.2%
- viability, T/C [24]: 67.9%
- viability, T/C [25]: 84%
- viability, T/C [26]: 84.8%
- viability, T/C [27]: 66.4%
- viability, T/C [28]: 70.1%
- viability, T/C [29]: 66.1%
- viability, T/C [30]: 72.8%
- viability, T/C [31]: 90.5%
- viability, T/C [32]: 72.7%
- viability, T/C [33]: 56.4%
- viability, T/C [34]: 74%
- viability, T/C [35]: 74.9%
- viability, T/C [36]: 75.2%

SMILES: O=C(c1cc(Cc2n[nH]c(=O)c3ccccc23)ccc1F)N1CCN(C(=O)C2CC2)CC1 + Cc1cccc(N(C)C(=O)C2C(O)CCN2c2nc(C)cc(C(F)(F)F)c2C#N)c1
- IC50 (second compound 0.0316 µM): > 10 µM
- IC50 (second compound 0.1 µM): > 10 µM
- IC50 (second compound 0.316 µM): > 10 µM
- IC50 (second compound 1 µM): > 10 µM
- IC50 (second compound 3.16 µM): > 10 µM
- IC50 (second compound 10 µM): > 10 µM
- viability, T/C [1]: 90.3%
- viability, T/C [2]: 85.9%
- viability, T/C [3]: 98.3%
- viability, T/C [4]: 104%
- viability, T/C [5]: 99.6%
- viability, T/C [6]: 101%
- viability, T/C [7]: 93.5%
- viability, T/C [8]: 108%
- viability, T/C [9]: 95%
- viability, T/C [10]: 97.5%
- viability, T/C [11]: 110%
- viability, T/C [12]: 77.4%
- viability, T/C [13]: 93%
- viability, T/C [14]: 94%
- viability, T/C [15]: 95.9%
- viability, T/C [16]: 104%
- viability, T/C [17]: 106%
- viability, T/C [18]: 83.8%
- viability, T/C [19]: 125%
- viability, T/C [20]: 101%
- viability, T/C [21]: 108%
- viability, T/C [22]: 117%
- viability, T/C [23]: 102%
- viability, T/C [24]: 80.2%
- viability, T/C [25]: 96.4%
- viability, T/C [26]: 111%
- viability, T/C [27]: 99.6%
- viability, T/C [28]: 115%
- viability, T/C [29]: 92.8%
- viability, T/C [30]: 74.2%
- viability, T/C [31]: 102%
- viability, T/C [32]: 94.5%
- viability, T/C [33]: 83.2%
- viability, T/C [34]: 89.2%
- viability, T/C [35]: 92.9%
- viability, T/C [36]: 69%
